Experimental findings from patent publication US7291641B2, “Derivatives of heterocycles with 5 members, their preparation and their use as medicaments” (Societe de Conseils de Recherches et d'Applications …, priority 1999, dated 2007) are described below.

Structures can show the parent of a compound that is named as a salt. Some results are limits rather than exact numbers.

Consider `O=C(NCCc1nc(-c2ccc(-c3ccccc3)cc2)c[nH]1)OC1CCCCC1` [Example 269, 4-[2-(2-{[(cyclohexyloxy)carbonyl]amino}ethyl)-1H-imidazol-4-yl]-1,1′-biphenyl], for which the melting point (commonly the temperature, or range, at which the solid turns liquid) is 150 °C.

`CCN(CC)c1ccc(-c2c[nH]c([C@@H](NC3CCCCC3)C3CCCCC3)n2)cc1` (as salt: hydrochloride) [Example 292, 4-{2-[(S)-cyclohexyl(cyclohexylamino)methyl]-1H-imidazol-4-yl}-N,N-diethylaniline] gave a melting point of 204 to 210 °C. As for `CNCc1nc(-c2ccccc2)c(C)[nH]1` (as salt: hydrochloride) [Example 158, N-methyl-(5-methyl-4-phenyl-1H-imidazol-2-yl)methanamine], the figure is 218 to 220 °C.

For the molecule `CCCCOC(=O)NCCc1nc(-c2ccc(-c3cc(F)cc(F)c3)cc2)c[nH]1` [Example 457, butyl 2-[4-(3′,5′-difluoro-1,1′-biphenyl-4-yl)-1H-imidazol-2-yl]ethylcarbamate], the melting point turned out to be 111.1 °C. As for `CC(C)(C)c1cc(-c2c[nH]c([C@@H](N)C3CCCCC3)n2)cc(C(C)(C)C)c1O` (as salt: hydrochloride) [Example 316, 4-{2-[(S)-amino(cyclohexyl)methyl]-1H-imidazol-4-yl}-2,6-ditert-butylphenol], the figure is 222 to 228 °C. As for `N[C@H](CCc1ccccc1)c1nc(-c2ccccc2)c[nH]1` (as salt: hydrochloride) [Example 131, (1R)-3-phenyl-1-(4-phenyl-1H-imidazol-2-yl)-1-propanamine], the figure is 174 to 176 °C; as for `CC(C)COC(=O)NCCc1nc(-c2ccc(C(C)(C)C)cc2)c[nH]1` [Example 339, isobutyl 2-[4-(4-tert-butylphenyl)-1H-imidazol-2-yl]ethylcarbamate], 110.6 °C; as for `c1ccc(-c2c[nH]c([C@@H](NC3CCCCC3)C3CCCCC3)n2)cc1` [Example 243, N-[(S)-cyclohexyl(4-phenyl-1H-imidazol-2-yl)methyl]-cyclohexanamine], 240 to 242 °C. Under `N[C@H](c1nc(-c2ccc(F)c(F)c2)c[nH]1)C1CCCCC1` (as salt: hydrochloride) [Example 258, (S)-cyclohexyl[4-(3,4-difluorophenyl)-1H-imidazol-2-yl]-methanamine] stands 222 to 223 °C; under `CCCCCCOC(=O)NCCc1nc(-c2ccc(-c3ccc(Br)cc3)cc2)c[nH]1` [Example 381, hexyl 2-[4-(4′-bromo-1,1′-biphenyl-4-yl)-1H-imidazol-2-yl]ethylcarbamate], 138 to 140 °C; under `CC(C)CCCOC(=O)NCCc1nc(-c2ccc(-c3ccccc3)cc2)c[nH]1` [Example 378, 4-methylpentyl 2-[4-(1,1′-biphenyl-4-yl)-1H-imidazol-2-yl]ethylcarbamate], 128.3 °C. `Brc1cccc(-c2c[nH]c([C@@H](NCC3CCCCC3)C3CCCCC3)n2)c1` [Example 289, (S)-1-[4-(3-bromophenyl)-1H-imidazol-2-yl]-1-cyclohexyl-N-(cyclohexylmethyl)methanamine] came in with a melting point of 134.3 °C. As for `Fc1ccc(-c2c[nH]c([C@@H](Cc3ccccc3)NC3CCCCC3)n2)cc1` (as salt: hydrochloride) [Example 327, N-{(1R)-1-[4-(4-fluorophenyl)-1H-imidazol-2-yl]-2-phenylethyl}cyclohexanamine], the figure is 210 to 213 °C; as for `NCc1nc(-c2ccc(-c3ccccc3)cc2)c[nH]1` (as salt: hydrochloride) [Example 141, (4-[1,1′-biphenyl]4-yl-1H-imidazol-2-yl)methanamine], 240 to 242 °C. `CCCCOC(=O)NCCc1nc(-c2ccc(CCC)cc2)c[nH]1` [Example 449, butyl 2-[4-(4-propylphenyl)-1H-imidazol-2-yl]ethylcarbamate]: the melting point came out at 83.2 °C. Under `CC[C@H](NC(=O)OC(C)(C)C)c1nc(-c2ccc(-c3ccccc3)cc2)c[nH]1` [Example 194, 4-(2-{(1S)-1-[(tert-butoxycarbonyl)amino]propyl}-1H-imidazol-4-yl)-1,1′-biphenyl] stands 138 to 140 °C. As for `CCCCOC(=O)NCCc1nc(-c2ccc(Br)cc2)c[nH]1` [Example 299, butyl 2-[4-(4-bromophenyl)-1H-imidazol-2-yl]ethylcarbamate], the figure is 99 to 100 °C; as for `CCCOC(=O)NCCc1nc(-c2ccc(-c3ccccc3)cc2)c[nH]1` [Example 245, 4-(2-{2-[(propoxycarbonyl)amino]ethyl}-1H-imidazol-4-yl)-1,1′-biphenyl], 141.2 °C; as for `CN(Cc1ccccc1)Cc1nc(-c2cc(C(C)(C)C)c(O)c(C(C)(C)C)c2)cs1` [Example 7, 4-(2-{[benzyl(methyl)amino]methyl}-1,3-thiazol-4-yl)-2,6-di(tert-butyl)phenol], 165 to 170 °C.

Consider `CCN(CC)c1ccc(-c2c[nH]c([C@@H](N)C3CCCCC3)n2)cc1` (as salt: hydrochloride) [Example 310, 4-{2-[(S)-amino(cyclohexyl)methyl]-1H-imidazol-4-yl}-N,N-diethylaniline], for which the melting point lay in the range of 216 to 217 °C. As for `CCCCOC(=O)N[C@H](C)c1nc(-c2ccc(-c3ccccc3)cc2)c[nH]1` [Example 242, 4-(2-{(1R)-1-[(butoxycarbonyl)amino]ethyl}-1H-imidazol-4-yl)-1,1′-biphenyl], the figure is 114 to 116 °C; as for `c1ccc(-c2c[nH]c([C@@H](Cc3c[nH]c4ccccc34)Nc3ncccn3)n2)cc1` [Example 44, N-[(1R)-2-(1H-indol-3-yl)-1-(4-phenyl-1H-imidazol-2-yl)ethyl]-2-pyrimidinamine], 138 to 140 °C. As for `Cn1cc(-c2ccc(-c3ccccc3)cc2)nc1CN` (as salt: hydrochloride) [Example 55, (4-[1,1′-biphenyl]-4-yl-1-methyl-1H-imidazol-2-yl)methanamine], the figure is 279 to 280 °C; as for `CN(Cc1ccccc1)Cc1nc(-c2ccc(-c3ccccc3)cc2)c[nH]1` [Example 42, N-benzyl(4-[1,1′-biphenyl]-4-yl-1H-imidazol-2-yl)-N-methylmethanamine], 106 to 108 °C; as for `CCCCOC(=O)NCCc1nc(-c2ccc(-c3ccc(C(F)(F)F)cc3)cc2)c[nH]1` [Example 452, butyl 2-{4-[41-(trifluoromethyl)-1,1′-biphenyl-4-yl]-1H-imidazol-2-yl}ethylcarbamate], 168.5 °C.

Take `CCCCCCNCCc1nc(-c2ccc(-c3ccccc3)cc2)c[nH]1` [Example 176, N-[2-(4-[1,1′-biphenyl]-4-yl-1H-imidazol-2-yl)ethyl]-1-hexanamine]: the melting point lay within 152 to 154 °C. On to `Fc1ccc(-c2c[nH]c([C@@H](NC3CCCCC3)C3CCCCC3)n2)cc1` (as salt: hydrochloride) [Example 264, N-{(S)-cyclohexyl[4-(4-fluorophenyl)-1H-imidazol-2-yl]methyl}cyclohexanamine], for which the melting point is greater than 250 °C. As for `CCCCCCC(NCC(C)C)c1nc(-c2ccccc2)c[nH]1` (racemic) (as salt: acetate) [Example 234, (R,S)-N-isobutyl-1-(4-phenyl-1H-imidazol-2-yl)-1-heptanamine], the figure is 70 to 72 °C. In turn, `CC(C)CCOC(=O)NCCc1nc(-c2ccc(-c3ccccc3)cc2)c[nH]1` [Example 380, isopentyl 2-[4-(1,1′-biphenyl-4-yl)-1H-imidazol-2-yl]ethylcarbamate] yielded a melting point of 128 to 130 °C.

In the case of `CCCCCCOC(=O)NCCc1nc(-c2ccc(N3CCCC3)cc2)c[nH]1` [Example 384, hexyl 2-[4-(4-pyrrolidin-1-ylphenyl)-1H-imidazol-2-yl]ethylcarbamate], the melting point lay in the range of 110 to 114 °C.

In turn, `O=C(NCCc1nc(-c2ccc(-c3ccccc3)cc2)c[nH]1)OCc1ccccc1` [Example 237, 4-[2-(2-{[(benzyloxy)carbonyl]amino}ethyl)-1H-imidazol-4-yl]-1,1′-biphenyl] displayed a melting point of 134 to 136 °C. The molecule `CCCCCCC(NC1CCC1)c1nc(-c2ccc(F)cc2)c[nH]1` (racemic) (as salt: hydrochloride) [Example 84, (R,S)-N-{1-[4-(4-fluorophenyl)-1H-imidazol-2-yl]heptyl}-cyclobutanamine] yielded a melting point of 144 to 146 °C. In turn, `CCCCC(NC(=O)OC(C)(C)C)c1nc(-c2ccc(-c3ccccc3)cc2)c[nH]1` (racemic) [Example 59, (R,S)-4-(2-{1-[(tert-butoxycarbonyl)amino]pentyl}-1H-imidazol-4-yl)-1,1′-biphenyl] gave a melting point of 172 to 176 °C.

In the case of `CCCCC(NCc1ccccc1)c1nc(-c2ccc(-c3ccccc3)cc2)c[nH]1` (racemic) [Example 60, (R,S)—N-benzyl-1-(4-[1,1′-biphenyl]4-yl-1H-imidazol-2-yl)-1-pentanamine], the melting point was 201 to 203 °C. With `CCCCCCC(N)c1nc(-c2ccccc2)c[nH]1` (racemic) (as salt: hydrochloride) [Example 142, (R,S)-1-(4-phenyl-1H-imidazol-2-yl)heptylamine], the melting point is 131 to 134 °C. Take `c1cc(C2CCCCC2)ccc1-c1c[nH]c([C@@H](NC2CCC2)C2CCCCC2)n1` (as salt: hydrochloride) [Example 275, N-{(S)-cyclohexyl[4-(4-cyclohexylphenyl)-1H-imidazol-2-yl]methyl}cyclobutanamine]: the melting point is 190 to 192 °C. Regarding `CCCCCCN(Cc1ccccc1)Cc1nc(-c2ccc(-c3ccccc3)cc2)c[nH]1` [Example 41, N-benzyl-N-[(4-[1,1′-biphenyl]-4-yl-1H-imidazol-2-yl)methyl]-1-hexanamine], the melting point was in the range of 120 to 122 °C. As for `CCC[C@@H](NC(=O)OC(C)(C)C)c1nc(-c2ccccc2)c[nH]1` [Example 207, tert-butyl (1R)-1-(4-phenyl-1H-imidazol-2-yl)butylcarbamate], the figure is 156 to 158 °C. Under `CC(C)COC(=O)NCCc1nc(-c2ccc(-c3ccc(Br)cc3)cc2)c[nH]1` [Example 338, isobutyl 2-[4-(4′-bromo-1,1′-biphenyl-4-yl)-1H-imidazol-2-yl]ethylcarbamate] stands 158.7 °C.
